In patent US8389557B2, “Triazole derivatives useful as Axl inhibitors” (Rigel Pharmaceuticals, Inc., priority 2005, dated 2013):
Where a name gives a salt, the structure may show the parent alone.

Key:
Axl = target: T1, Axl (Homo sapiens, UniProt P30530); test: Phospho-Akt in-cell Western assay (inhibition of Axl activity); format: cell-based
T1 construct: endogenous in cells; host or cells: HeLa cells
T1 sequence (P30530 26-894): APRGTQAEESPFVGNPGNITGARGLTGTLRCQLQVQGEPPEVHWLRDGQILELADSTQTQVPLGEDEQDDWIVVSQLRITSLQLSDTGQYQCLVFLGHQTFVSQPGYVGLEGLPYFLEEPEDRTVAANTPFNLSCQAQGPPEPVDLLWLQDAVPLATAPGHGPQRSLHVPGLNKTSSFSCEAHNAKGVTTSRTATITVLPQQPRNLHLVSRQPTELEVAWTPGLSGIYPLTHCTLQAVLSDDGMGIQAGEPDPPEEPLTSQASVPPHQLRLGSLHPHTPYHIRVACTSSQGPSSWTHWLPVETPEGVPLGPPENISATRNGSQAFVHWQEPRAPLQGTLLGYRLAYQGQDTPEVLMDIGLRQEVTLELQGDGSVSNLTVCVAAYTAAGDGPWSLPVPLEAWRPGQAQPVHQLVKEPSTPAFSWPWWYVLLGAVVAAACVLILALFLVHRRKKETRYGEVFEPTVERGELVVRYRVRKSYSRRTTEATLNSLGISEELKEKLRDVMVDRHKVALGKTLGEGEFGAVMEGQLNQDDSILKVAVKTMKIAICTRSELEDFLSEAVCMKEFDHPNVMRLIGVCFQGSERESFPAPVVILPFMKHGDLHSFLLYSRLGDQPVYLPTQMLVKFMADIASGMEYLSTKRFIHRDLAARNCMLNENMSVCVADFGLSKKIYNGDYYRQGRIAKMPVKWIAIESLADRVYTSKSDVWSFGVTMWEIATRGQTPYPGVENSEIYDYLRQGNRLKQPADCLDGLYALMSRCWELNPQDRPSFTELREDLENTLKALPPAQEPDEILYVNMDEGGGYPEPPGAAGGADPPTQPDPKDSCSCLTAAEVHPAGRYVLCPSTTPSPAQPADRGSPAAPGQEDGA
Procedure, shortened: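 HeLa cells on poly-L-lysine, starved 24 h in 0.5% FCS DMEM with Axl/Fc 500 ng/mL, pre-treated with compound 1 h at 37° C. Axl stimulated 5 min by anti-Axl/anti-mouse antibody cross-linking. Fixed cells probed with anti-phospho-Akt and HRP secondary, chemiluminescence read.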

[1] = inhibition of Axl activity, Table 1
[2] = Table 5, Hela cells, Axl antibody cross-linking stimulation, phospho-Akt chemiluminescence
[3] = Table 3, Hela cells, Axl antibody cross-linking stimulation, phospho-Akt chemiluminescence
[4] = inhibition of Axl activity, phospho-Akt in-cell Western assay, Table 1

| SMILES | melting point [°C] | IC50 (Axl; [1]) [µM] | also measured |
| --- | --- | --- | --- |
| Nc1nc(Nc2cccc(OCCN3CCOCC3)c2)nn1C(=O)c1ccccc1 (as salt: salt) [(Ia-26), 5-amino-3-[3-[2-(morpholin-4-yl)ethoxy]phenylamino]-1-phenylcarbonyl-1H-1,2,4-triazole, hydrogen chloride salt] | 236.6 to 242.1 | – | – |
| Cc1ccc(C(=O)n2nc(Nc3cccc(OCC#N)c3)nc2N)cc1 [(Ia-5), 5-amino-3-[3-(cyanomethoxy)phenylamino]-1-(4-(methyl)phenyl)carbonyl-1H-1,2,4-triazole] | 236 to 241 | – | – |
| Cc1ccccc1C(=O)n1nc(Nc2cccc(OCC#N)c2)nc1N [(Ia-8), 5-amino-3-[3-(cyanomethoxy)phenylamino]-1-(2-(methyl)phenyl)carbonyl-1H-1,2,4-triazole] | 204.5 to 207.9 | > 20 | – |
| Cc1cccc(C(=O)n2nc(Nc3cccc(OCC#N)c3)nc2N)c1 [(Ia-9), 5-amino-3-[3-(cyanomethoxy)phenylamino]-1-(3-(methyl)phenyl)carbonyl-1H-1,2,4-triazole] | 220 to 224.4 | > 20 | – |
| CC(C)Oc1ccc(C(=O)n2nc(Nc3ccc(OCc4ccccc4)cc3)nc2N)cc1 [(Ia-10), 5-amino-3-[4-(benzyloxy)phenylamino]-1-(4-(iso-propoxy)phenyl)carbonyl-1H-1,2,4-triazole] | 79 to 81 | > 20 | – |
| CC(C)Oc1ccc(C(=O)n2nc(Nc3ccc(O)cc3)nc2N)cc1 [(Ia-11), 5-amino-3-[4-(hydroxy)phenylamino]-1-(4-(iso-propoxy)phenyl)carbonyl-1H-1,2,4-triazole] | 229 to 234 | 1 to 10 | – |
| CC(C)Oc1ccc(C(=O)n2nc(Nc3ccc(OCC#N)cc3)nc2N)cc1 [(Ia-12), 5-amino-3-[4-(cyanomethoxy)phenylamino]-1-(4-(iso-propoxy)phenyl)carbonyl-1H-1,2,4-triazole] | 182.9 to 186.1 | 1 to 10 | – |
| CC(C)Oc1ccc(C(=O)n2nc(Nc3cccc(O)c3)nc2N)cc1 [(Ia-13), 5-amino-3-[3-(hydroxy)phenylamino]-1-(4-(iso-propoxy)phenyl)carbonyl-1H-1,2,4-triazole] | 204.2 to 211.9 | 1 to 10 | – |
| CC(C)Oc1cccc(C(=O)n2nc(Nc3cccc(O)c3)nc2N)c1 [(Ia-16), 5-amino-3-[3-(hydroxy)phenylamino]-1-(3-(iso-propoxy)phenyl)carbonyl-1H-1,2,4-triazole] | 211.3 to 214.8 | 1 to 10 | – |
| CC(C)Oc1cccc(C(=O)n2nc(Nc3cccc(OCc4ccccc4)c3)nc2N)c1 [(Ia-17), 5-amino-3-[3-(benzyloxy)phenylamino]-1-(3-(iso-propoxy)phenyl)carbonyl-1H-1,2,4-triazole] | 131.1 to 132.4 | > 20 | – |
| Cc1cccc(C(=O)n2nc(Nc3cccc(OCC(=O)NCCN4CCOCC4)c3)nc2N)c1 [(Ia-18), 5-amino-1-(3-methylphenyl)carbonyl-3-[3-[2-(4-morpholinyl)ethylaminocarbonylmethoxy]phenyl]amino-1H-1,2,4-triazole] | 145 to 147 | 1 to 10 | – |
| Cc1cccc(C(=O)n2nc(Nc3cccc(OCC(=O)N4CCN(C(=O)OC(C)(C)C)CC4)c3)nc2N)c1 [(Ia-19)] | 206 to 208 | > 20 | – |
| Cc1cccc(C(=O)n2nc(Nc3cccc(OCC(=O)N4CCNCC4)c3)nc2N)c1 [(Ia-20), 5-amino-1-(3-methylphenyl)carbonyl-3-[3-(piperazin-4-ylcarbonylmethoxy)phenyl]amino-1H-1,2,4-triazole] | 169 to 171 | 1 to 10 | – |
| CC(C)Oc1ccc(C(=O)n2nc(Nc3cccc(OCCN4CCOCC4)c3)nc2N)cc1 [(Ia-22)] | 152 to 153.7 | 1 to 10 | – |
| CC(C)Oc1ccc(C(=O)n2nc(Nc3cccc(OCCC4OCCO4)c3)nc2N)cc1 [(Ia-24), 5-amino-3-[3-[2-(1,3-dioxolan-2-yl)ethoxy]phenylamino]-1-(4-(iso-propoxy)phenyl)carbonyl-1H-1,2,4-triazole] | 144.4 to 145.4 | 1 to 10 | – |
| CC(C)Oc1ccc(C(=O)n2nc(Nc3cccc(OCc4ccccc4)c3)nc2N)cc1 [(Ia-25), 5-amino-3-[3-(benzyloxy)phenylamino]-1-(4-(iso-propoxy)phenyl)carbonyl-1H-1,2,4-triazole] | 188.7 to 189.9 | > 20 | – |
| COc1cc(OC)cc(C(=O)n2nc(Nc3ccc(OCCN4CCCC4)cc3)nc2N)c1 [compound #22, 5-Amino-1-(3,5-(dimethoxy)phenyl)carbonyl-3-[4-[2-(pyrrolidin-1-yl)ethoxy]phenylamino]-1H-1,2,4-triazole] | – | – | IC50 (Axl; [4]): < 1 µM |
| Nc1nc(Nc2ccc(OCCN3CCCC3)cc2)nn1C(=O)c1ccc(OC(F)(F)F)cc1 [compound #23, 5-Amino-3-[4-[2-(pyrrolidin-1-yl)ethoxy]phenylamino]-1-(4-(trifluoromethoxy)phenyl)carbonyl-1H-1,2,4-triazole] | – | – | IC50 (Axl; [4]): < 1 µM |
| CC(C)(C)Oc1cccc(C(=O)n2nc(Nc3ccc(OCCCN4CCCC4)cc3)nc2N)c1 [compound #24, 5-Amino-3-[4-[3-(pyrrolidin-1-yl)propoxy]phenylamino]-1-(3-(tert-butoxy)phenyl)carbonyl-1H-1,2,4-triazole] | – | – | IC50 (Axl; [4]): < 1 µM |
| Nc1nc(Nc2ccc(OCCN3CCCC3)cc2)nn1C(=O)c1ccc2nc[nH]c2c1 [compound #25, 5-Amino-1-(benzimidazol-6-yl)carbonyl-3-[4-[2-(pyrrolidin-1-yl)ethoxy]phenylamino]-1H-1,2,4-triazole] | – | – | IC50 (Axl; [3]): 1 to 10 µM |
| CC(C)Oc1ccc(C(=O)n2nc(Nc3ccc(N4CCCCC4)cc3)nc2N)cc1 [compound #26, 5-Amino-1-(4-(iso-propoxy)phenyl)carbonyl-3-[4-(piperidin-1-yl)phenylamino]-1H-1,2,4-triazole] | – | – | IC50 (Axl; [4]): 1 to 10 µM |
| Cc1ccc(C(=O)n2nc(Nc3ccc(OCCN4CCCC4)cc3)nc2N)cn1 [compound #28, 5-Amino-1-(6-(methyl)pyridin-3-yl)carbonyl-3-[4-[2-(pyrrolidin-1-yl)ethoxy]phenylamino]-1H-1,2,4-triazole] | – | – | IC50 (Axl; [3]): 1 to 10 µM |

Continued, in another order:

| melting point [°C] | IC50 (Axl; [1]) [µM] | SMILES | also measured |
| --- | --- | --- | --- |
| 60 to 63 | 1 to 10 | Cc1cccc(C(=O)n2nc(Nc3cccc(OCCN4CCOCC4)c3)nc2N)c1 [(Ia-27)] | – |
| 128 to 131 | – | C=CCN(C)Cc1cc2cc(Nc3nc(N)n(C(=O)c4cccc(C)c4)n3)ccc2o1 [(Ia-28), 5-amino-3-(2-((allyl(methyl)amino)methyl)benzofuran-5-yl)amino-1-(3-methylphenyl)carbonyl-1H-1,2,4-triazole] | IC50 (Axl; [2]): 1 to 10 µM |
| 128 to 131 | – | CNCc1cc2cc(Nc3nc(N)n(C(=O)c4cccc(C)c4)n3)ccc2o1 [(Ia-29), 5-amino-3-(2-((methylamino)methyl)benzofuran-5-yl)amino-1-(3-methylphenyl)carbonyl-1H-1,2,4-triazole] | IC50 (Axl; [2]): < 1 µM |
| 190 to 193 | – | Nc1nc(Nc2ccccc2)n(C(=O)/C=C/c2ccco2)n1 [compound 140, 3-amino-5-phenylamino-1-(trans-2-(furan-2-yl)ethenyl)carbonyl-1H-1,2,4-triazole] | IC50 (Axl; Table 4, Hela cells, Axl antibody cross-linking stimulation, phospho-Akt chemiluminescence): > 20 µM |
| 212 to 216 | – | Nc1nc(Nc2ccccc2)nn1C(=O)/C=C/c1ccco1 [compound 141, 5-amino-3-phenylamino-1-(trans-2-(furan-2-yl)ethenyl)carbonyl-1H-1,2,4-triazole] | IC50 (Axl; [3]): 1 to 10 µM |
